Data: paper PMC11246513, “Exploring bat-inspired cyclic tryptophan diketopiperazines as ABCB1 Inhibitors” (Communications Chemistry, 2024)

Assays:
[1] = biological target: T1, bat ABCB1 (Pteropus alecto, UniProt L5JS44); assay: rhodamine […] efflux inhibition, flow cytometry, PaKiT03 cells with ABCB1 KO control; type: cell-based
T1 construct: gene PAL_GLEAN10013639; endogenous ABCB1 in PaKiT03 cells

[2] = biological target: T2, ABCB1 (Homo sapiens, UniProt P08183); assay: rhodamine […] efflux inhibition, flow cytometry, HEK293T ABCB1 cells; type: cell-based; parameters: human ABCB1 (ABCB1-TEV-His-FLAG) stably expressed in HEK293T
T2 sequence (P08183 whole entry): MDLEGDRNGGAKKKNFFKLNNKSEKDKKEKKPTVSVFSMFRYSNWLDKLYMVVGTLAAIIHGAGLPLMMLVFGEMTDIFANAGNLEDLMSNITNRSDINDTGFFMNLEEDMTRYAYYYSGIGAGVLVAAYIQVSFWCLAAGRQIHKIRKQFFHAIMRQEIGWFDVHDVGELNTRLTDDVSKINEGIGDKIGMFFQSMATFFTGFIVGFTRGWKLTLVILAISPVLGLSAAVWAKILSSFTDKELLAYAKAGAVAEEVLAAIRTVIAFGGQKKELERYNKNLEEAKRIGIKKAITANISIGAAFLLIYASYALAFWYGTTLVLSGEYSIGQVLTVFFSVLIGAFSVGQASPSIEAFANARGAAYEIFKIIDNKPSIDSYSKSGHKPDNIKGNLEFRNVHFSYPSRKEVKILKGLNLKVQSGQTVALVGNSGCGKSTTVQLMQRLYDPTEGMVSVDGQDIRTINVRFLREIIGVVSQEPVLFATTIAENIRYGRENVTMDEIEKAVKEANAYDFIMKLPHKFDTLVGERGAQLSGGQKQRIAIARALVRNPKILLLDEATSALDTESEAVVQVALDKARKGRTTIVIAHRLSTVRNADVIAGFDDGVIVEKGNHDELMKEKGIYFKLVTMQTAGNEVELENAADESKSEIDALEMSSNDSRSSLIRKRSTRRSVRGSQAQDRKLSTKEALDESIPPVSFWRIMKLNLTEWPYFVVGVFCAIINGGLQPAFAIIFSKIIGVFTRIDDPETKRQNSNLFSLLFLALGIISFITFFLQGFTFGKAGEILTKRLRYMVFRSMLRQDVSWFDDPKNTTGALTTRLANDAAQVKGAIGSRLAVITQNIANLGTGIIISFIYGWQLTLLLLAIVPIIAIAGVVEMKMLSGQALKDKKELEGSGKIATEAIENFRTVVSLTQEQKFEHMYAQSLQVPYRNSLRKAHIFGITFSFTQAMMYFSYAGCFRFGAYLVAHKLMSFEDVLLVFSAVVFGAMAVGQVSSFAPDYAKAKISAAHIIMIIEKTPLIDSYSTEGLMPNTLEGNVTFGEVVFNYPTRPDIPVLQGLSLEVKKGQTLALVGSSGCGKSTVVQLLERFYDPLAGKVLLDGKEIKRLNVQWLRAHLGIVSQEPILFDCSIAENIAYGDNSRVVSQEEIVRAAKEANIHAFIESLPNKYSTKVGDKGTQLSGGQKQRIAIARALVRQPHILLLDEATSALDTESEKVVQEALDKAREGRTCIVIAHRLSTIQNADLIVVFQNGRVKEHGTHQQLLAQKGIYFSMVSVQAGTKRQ

[3] = biological target: T2, ABCB1; type: biochemical; parameters: human ABCB1-FLAG, purified and reconstituted into egg lecithin liposome
[4] = biological target: T1, bat ABCB1; assay: rhodamine […] efflux inhibition, flow cytometry, PaKiT03 cells; type: cell-based

T1 sequence (L5JS44 1-1308): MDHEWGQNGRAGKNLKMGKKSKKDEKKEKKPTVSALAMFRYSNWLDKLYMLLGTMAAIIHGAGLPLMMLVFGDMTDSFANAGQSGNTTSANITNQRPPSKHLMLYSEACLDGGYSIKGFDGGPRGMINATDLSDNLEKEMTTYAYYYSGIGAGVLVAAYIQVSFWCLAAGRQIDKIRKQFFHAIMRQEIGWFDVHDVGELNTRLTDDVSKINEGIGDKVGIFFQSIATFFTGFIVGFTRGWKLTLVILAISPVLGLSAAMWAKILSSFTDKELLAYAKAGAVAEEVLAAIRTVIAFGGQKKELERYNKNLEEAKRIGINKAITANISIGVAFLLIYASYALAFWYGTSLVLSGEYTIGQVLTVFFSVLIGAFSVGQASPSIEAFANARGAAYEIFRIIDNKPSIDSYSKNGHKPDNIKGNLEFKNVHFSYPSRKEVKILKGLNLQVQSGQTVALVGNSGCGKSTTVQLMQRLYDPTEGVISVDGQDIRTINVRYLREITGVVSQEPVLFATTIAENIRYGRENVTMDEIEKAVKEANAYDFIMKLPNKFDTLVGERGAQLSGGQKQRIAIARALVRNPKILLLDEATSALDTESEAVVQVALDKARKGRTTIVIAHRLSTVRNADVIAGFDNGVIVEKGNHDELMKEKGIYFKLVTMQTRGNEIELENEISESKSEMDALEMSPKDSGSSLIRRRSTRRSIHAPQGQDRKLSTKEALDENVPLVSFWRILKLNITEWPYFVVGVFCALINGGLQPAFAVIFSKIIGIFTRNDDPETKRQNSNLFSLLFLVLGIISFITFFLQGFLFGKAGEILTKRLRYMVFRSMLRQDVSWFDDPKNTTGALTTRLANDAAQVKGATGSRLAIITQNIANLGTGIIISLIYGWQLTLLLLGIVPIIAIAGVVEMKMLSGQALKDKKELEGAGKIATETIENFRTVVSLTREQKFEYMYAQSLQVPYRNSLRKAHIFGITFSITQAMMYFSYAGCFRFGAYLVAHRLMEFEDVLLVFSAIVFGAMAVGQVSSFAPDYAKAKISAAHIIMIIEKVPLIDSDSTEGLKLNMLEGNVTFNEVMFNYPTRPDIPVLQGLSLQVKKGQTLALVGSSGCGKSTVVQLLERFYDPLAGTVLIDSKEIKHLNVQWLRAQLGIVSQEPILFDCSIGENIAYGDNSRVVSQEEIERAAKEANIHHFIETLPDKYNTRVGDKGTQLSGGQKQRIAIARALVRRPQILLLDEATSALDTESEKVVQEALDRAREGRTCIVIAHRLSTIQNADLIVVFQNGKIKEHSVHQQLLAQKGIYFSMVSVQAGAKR

For O=C1N[C@@H](Cc2c[nH]c3ccccc23)C(=O)N2[C@H]1C[C@@]1(Cc3ccccc3)c3ccccc3N(Cc3ccccc3)[C@@H]21 [C3N-Dbn-Trp2], the IC50 [1] was 900 nM and the IC50 [2] was 5900 nM.
In the case of Cn1cc(C[C@@H]2NC(=O)[C@H](Cc3cn(C)c4ccccc34)NC2=O)c2ccccc21 [Cyclo-(L-1-methyl-Trp-L-1-methyl-Trp)], the “ATPase stimulation of purified reconstituted ABCB1 (ADP by HPLC); supported by d” value [3] is reported as “Cyclo-(L-1-methyl-Trp-L-1-methyl-Trp) consumed larger amounts of ATP than Cyclo-(L-Trp-L-Trp) in the in vitro ATPase assay”.
For O=C1N[C@@H](Cc2c[nH]c3ccccc23)C(=O)N[C@H]1Cc1c[nH]c2ccccc12 [Cyclo-(L-Trp-L-Trp)], the “ATPase stimulation of purified reconstituted ABCB1 (ADP by HPLC); supported by d” value [3] was ~ 2 mM.
With COc1cc2c(cc1OC)CN(CCc1ccc(NC(=O)c3cc(OC)c(OC)cc3NC(=O)c3cnc4ccccc4c3)cc1)CC2 [tariquidar] the IC50 [4] was 2 nM and the IC50 [2] was 16 nM.
